Data: patent EP2842965A1, “Neuromedin U analogs comprising serum albumin binding amino acid residue” (Gubra ApS, priority 2013, dated 2015)
Starred links: 1 amine or outer side, 2 acyl side, 3 side chain; linkers in the order of their positions; H or OH if unused. Residues, ends and D or L forms follow the SMILES beside them. Groups on a side chain read outwards from the residue. *: point of attachment. γGlu = O=C(O)[C@H](CCC(=O)[*:2])N[*:1]; Palmitoyl = CCCCCCCCCCCCCCCC(=O)*

Experiment: In vivo acute/dose response study of food intake in the HM2 system after SC dosing
Conditions: 6 hours post dosing, male NMRI mice
Experimental: Animals: A total of seventy two (72) male NMRI mice 6-7 weeks old (approx. 25 g BW) at the time of arrival were obtained from Taconic (Denmark) and transferred to the Gubra test stables. Upon arrival the animals will be transferred into the HM2 cages and housed in groups of four. The animal room environment were controlled (targeted ranges: temperature 22 ± 2°C; relative humidity 50 ± 10%; light/dark cycle: 12 hours light, 12 hours dark, lights on from 6 AM to 6 PM. […] have ad libitum access to Altromin (Brogaarden, Denmark) and tap water.
Run-in period: Mice arrived at day -7. A minimum of 5-7 days of habituation to the system was allowed before study start. During these days, animals were handled daily to accustom them to the experimental paradigm.
Runs in the HM2 system: In total five runs were performed in the HM2 system. There were at least 4 days of washout between each run.
Acute effect of lipidated analogues: Mice were re-randomized and the acute effects of the lipidated compounds were tested in an acute setting. Mice were dosed in doses equimolar to the concentration of NMU found to be semi-efficacious.
Dose response study: Different doses of the analogues were tested in order to establish a dose response relationship. Mice were re-randomized and four different doses of the five lipidated analogues were tested over two different runs in the HM2 system and compared with NMU at […] and liraglutide at 0.05 µmol/kg.
Randomization and experimentation: Animals were randomized according to body weight the day of dosing and stratified into the following experimental groups based on mean cage weight (n=4-8): • Pilot (PD) study run 1 (dose finding of NMU): • 1: Vehicle (0.9% NaCl, pH ∼ 4.0 and 0.1% BSA) (n=4) • 2: Native human Neuromedin U (NMU-25), sc, 1 mg/kg (n=4) • 3: Native human Neuromedin U (NMU-25), sc, 3 mg/kg (n=4) • 4: Native human Neuromedin U (NMU-25), sc, 10 mg/kg (n=4) • 5: PYY3-36, sc 1 mg/kg (n=4) • Pilot (PD) study run 2 (dose finding of NMU): • 1: Vehicle (0.9% NaCl, pH ∼ 4.0 and 0.1% BSA) (n=4) • 2: Native human Neuromedin U (NMU-25), sc, 1 mg/kg (n=4) • 3: Native human Neuromedin U (NMU-25), sc, 3 mg/kg (n=4) • Acute effects of lipidated analogues: • 1: Vehicle (PBS + 0.1% BSA+ 5.4% DMSO) SC • 2: Liraglutide 0.2 mg/kg, sc, 0.05 pmol/kg (n=8) • 3: Human neuromedin U 25 (NMU), sc, 1 µmol/kg (n=8) • 5: SEQ ID NO 17, sc, 1 pmol/kg (n=8) • 6: SEQ ID NO 14, sc, 1 pmol/kg (n=8) • 7: SEQ ID NO 11, sc, 1 pmol/kg (n=8) • 8: SEQ ID NO 8, sc, 1 pmol/kg (n=8) • 9: SEQ ID NO 5, sc, 1 pmol/kg (n=8) • Dose response study run 1 • 1: Vehicle (0.9% NaCl, pH ∼ 4.1 and 0.1% BSA) (n=6) • 2: Liraglutide 0.2 mg/kg, sc, 0.05 pmol/kg (n=4) • 3: Human neuromedin U 25 (NMU), sc, 1 µmol/kg (n=5) • 8: SEQ ID NO 17, sc, 1 pmol/kg (n=4) • 9: SEQ ID NO 17, sc, 0.3 pmol/kg (n=5) • 10: SEQ ID NO 17, sc, 0.1 µmol/kg (n=5) • 11: SEQ ID NO 17, sc, 0.03 pmol/kg (n=5) • 12: SEQ ID NO 14, sc, 1 pmol/kg (n=4) • 13: SEQ ID NO 14, sc, 0.3 pmol/kg (n=5) • 14: SEQ ID NO 14, sc, 0.1 pmol/kg (n=5) • 15: SEQ ID NO 14, sc, 0.03 pmol/kg (n=5) • Dose response study run 2 • 1: Vehicle (0.9%NaCl, pH ∼ 4.0 and 0.1% BSA) (n=5) • 2: Liraglutide 0.2 mg/kg, sc, 0.05 pmol/kg (n=4) • 3: Human neuromedin U 25 (NMU), sc, 1 µmol/kg (n=4) • 4: SEQ ID NO 11, sc, 1 pmol/kg (n=4) • 5: SEQ ID NO 11, sc, 0.3 pmol/kg (n=5) • 6: SEQ ID NO 11, sc, 0.1 pmol/kg (n=5) • 7: SEQ ID NO 11, sc, 0.03 pmol/kg (n=5) • 8: SEQ ID NO 8, sc, 1 pmol/kg (n=4) • 9: SEQ ID NO 8, sc, 0.3 pmol/kg (n=5) • 10: SEQ ID NO 8, sc, 0.1 pmol/kg (n=5) • 11: SEQ ID NO 8, sc, 0.03 pmol/kg (n=5) • 12: SEQ ID NO 5, sc, 1 pmol/kg (n=4) • 13: SEQ ID NO 5, sc, 0.3 pmol/kg (n=5) • 14: SEQ ID NO 5, sc, 0.1 µmol/kg (n=5) • 15: SEQ ID NO 5, sc, 0.03 pmol/kg (n=5) Dosing: All dosing took place just prior to lights out in the afternoon. Doses was administered subcutaneously (sc) (dose volume 10 ml/kg), alternating the injection site from the left to the right side of the lower back and inguinal region, respectively. […]

SMILES | Percent food intake reduction 6 hours post SC dosing (0.03 µmol/kg) | Percent food intake reduction 6 hours post SC dosing (0.1 µmol/kg) | Percent food intake reduction 6 hours post SC dosing (0.3 µmol/kg) | Percent food intake reduction 6 hours post SC dosing (1.0 µmol/kg)
CCCCCCCCCCCCCCCC(=O)N[C@@H](CCC(=O)NCCCC[C@H](NC(=O)[C@H](CCC(N)=O)NC(=O)[C@H](CO)NC(=O)[C@H](C)NC(=O)[C@H](Cc1ccccc1)NC(=O)[C@@H]1CCCN1C(=O)[C@H](CO)NC(=O)[C@H](CCC(N)=O)NC(=O)[C@H](Cc1ccccc1)NC(=O)[C@H](CCC(=O)O)NC(=O)[C@H](CCC(=O)O)NC(=O)[C@H](CC(=O)O)NC(=O)[C@@H](NC(=O)[C@H](CCCNC(=N)N)NC(=O)[C@@H](N)Cc1ccccc1)C(C)C)C(=O)N[C@@H](CCCNC(=N)N)C(=O)NCC(=O)N[C@@H](Cc1ccc(O)cc1)C(=O)N[C@@H](Cc1ccccc1)C(=O)N[C@@H](CC(C)C)C(=O)N[C@@H](Cc1ccccc1)C(=O)N[C@@H](CCCNC(=N)N)C(=O)N1CCC[C@H]1C(=O)N[C@@H](CCCNC(=N)N)C(=O)N[C@@H](CC(N)=O)C(N)=O)C(=O)O [SEQ ID NO 5] (H-FRVDEEFQSPFASQK([γGlu-Palmitoyl])RGYFLFRPRN-NH2) | 41% | 41% | 61% | 76%
CCCCCCCCCCCCCCCC(=O)N[C@@H](CCC(=O)NCCCC[C@H](NC(=O)[C@H](CCC(=O)O)NC(=O)[C@H](CC(=O)O)NC(=O)[C@@H](NC(=O)[C@H](CCCNC(=N)N)NC(=O)[C@@H](N)Cc1ccccc1)C(C)C)C(=O)N[C@@H](Cc1ccccc1)C(=O)N[C@@H](CCC(N)=O)C(=O)N[C@@H](CO)C(=O)N1CCC[C@H]1C(=O)N[C@@H](Cc1ccccc1)C(=O)N[C@@H](C)C(=O)N[C@@H](CO)C(=O)N[C@@H](CCC(N)=O)C(=O)N[C@@H](CO)C(=O)N[C@@H](CCCNC(=N)N)C(=O)NCC(=O)N[C@@H](Cc1ccc(O)cc1)C(=O)N[C@@H](Cc1ccccc1)C(=O)N[C@@H](CC(C)C)C(=O)N[C@@H](Cc1ccccc1)C(=O)N[C@@H](CCCNC(=N)N)C(=O)N1CCC[C@H]1C(=O)N[C@@H](CCCNC(=N)N)C(=O)N[C@@H](CC(N)=O)C(N)=O)C(=O)O [SEQ ID NO 14] (H-FRVDEK([γGlu-Palmitoyl])FQSPFASQSRGYFLFRPRN-NH2) | 5% | 31% | 79% | 89%
CCCCCCCCCCCCCCCC(=O)N[C@@H](CCC(=O)NCCCC[C@H](NC(=O)[C@H](C)NC(=O)[C@H](Cc1ccccc1)NC(=O)[C@@H]1CCCN1C(=O)[C@H](CO)NC(=O)[C@H](CCC(N)=O)NC(=O)[C@H](Cc1ccccc1)NC(=O)[C@H](CCC(=O)O)NC(=O)[C@H](CCC(=O)O)NC(=O)[C@H](CC(=O)O)NC(=O)[C@@H](NC(=O)[C@H](CCCNC(=N)N)NC(=O)[C@@H](N)Cc1ccccc1)C(C)C)C(=O)N[C@@H](CCC(N)=O)C(=O)N[C@@H](CO)C(=O)N[C@@H](CCCNC(=N)N)C(=O)NCC(=O)N[C@@H](Cc1ccc(O)cc1)C(=O)N[C@@H](Cc1ccccc1)C(=O)N[C@@H](CC(C)C)C(=O)N[C@@H](Cc1ccccc1)C(=O)N[C@@H](CCCNC(=N)N)C(=O)N1CCC[C@H]1C(=O)N[C@@H](CCCNC(=N)N)C(=O)N[C@@H](CC(N)=O)C(N)=O)C(=O)O [SEQ ID NO 8] (H-FRVDEEFQSPFAK([γGlu-Palmitoyl])QSRGYFLFRPRN-NH2) | 25% | 55% | 46% | 90%
CCCCCCCCCCCCCCCC(=O)N[C@@H](CCC(=O)NCCCC[C@H](NC(=O)[C@@H](NC(=O)[C@H](CCCNC(=N)N)NC(=O)[C@@H](N)Cc1ccccc1)C(C)C)C(=O)N[C@@H](CCC(=O)O)C(=O)N[C@@H](CCC(=O)O)C(=O)N[C@@H](Cc1ccccc1)C(=O)N[C@@H](CCC(N)=O)C(=O)N[C@@H](CO)C(=O)N1CCC[C@H]1C(=O)N[C@@H](Cc1ccccc1)C(=O)N[C@@H](C)C(=O)N[C@@H](CO)C(=O)N[C@@H](CCC(N)=O)C(=O)N[C@@H](CO)C(=O)N[C@@H](CCCNC(=N)N)C(=O)NCC(=O)N[C@@H](Cc1ccc(O)cc1)C(=O)N[C@@H](Cc1ccccc1)C(=O)N[C@@H](CC(C)C)C(=O)N[C@@H](Cc1ccccc1)C(=O)N[C@@H](CCCNC(=N)N)C(=O)N1CCC[C@H]1C(=O)N[C@@H](CCCNC(=N)N)C(=O)N[C@@H](CC(N)=O)C(N)=O)C(=O)O [SEQ ID NO 17] (H-FRVK([γGlu-Palmitoyl])EEFQSPFASQSRGYFLFRPRN-NH2) | 20% | 43% | 64% | 78%
